Data as given in patent US20260242405A1, “N-DERIVATIZED SIALIC ACIDS AND RELATED SIALOSIDES” (THE REGENTS OF THE UNIVERSITY OF CALIFORNIA, priority 2023, published 2026).

System: influenza NAs

| Substance | resistance of immobilized sialoside to NA-catalyzed cleavage during BLI incubation |
| --- | --- |
| 4-Guanidino-Neu5Acα2-3LacNAcβPorNH-PEG4-Biotin [Compound 10d] | resistant to the NA-catalyzed cleavage |
| 4NH2Neu5Acα2-3LacNAcβPorNH-PEG4-Biotin [Compound 9d] | bound to the NAs but was partially cleaved off during the incubation |
